Measurements published in patent US20130190248A1, “S[…] ANALOGS” (AGENSYS, INC., priority 2011, published 2013).
Where a SMILES comes first, the peptide text is derived from it. [ ]: non-standard residue; d: D form. The star is where a group is joined. Dolaproine = CO[C@@H]([C@@H]1CCCN1)[C@@H](C)C(=O)O; Dil = CC[C@H](C)[C@H](NC)[C@@H](CC(=O)O)OC; NH(2-(2-pyridyl)ethyl) = c1ccc(CCN*)nc1; NMeV = CN[C@H](C(=O)O)C(C)C

System: SW780 human bladder cancer cells
Test: In vivo efficacy in subcutaneously established human bladder cancer cell line SW780 implanted in ICR SCID mice
Settings: QW for 3 weeks, SW780 xenograft, male ICR SCID mice
Description: Determination of In Vivo Efficacy of Test Compounds: Efficacy Evaluation in Subcutaneously Established Human Bladder Cancer Cell Line SW780 Implanted in ICR SCID Mice
For animal in vivo studies, the test compounds were diluted with 20 mM Histidine, 5% Sucrose, pH 6 with 15% DMSO. Male ICR SCID mice (Taconic Farm, Hudson, N.Y.) were housed in standard rodent micro isolator cages. Environment controls for the animal rooms were set to maintain a temperature between 68-75° F., a relative humidity between 30% to 70%, and an approximate 12 h light/12 h dark cycle. Food and water was provided ad libitum. After 72 h of acclimatization, the mice were implanted with SW780 human bladder cancer cells (2×10^6 cells/mouse), suspended in 50% complete cultrex (Trevigen, Inc.) mixed with 1×PBS (Gibco), and the tumor growth rate was monitored. When the average tumor volume reached ˜200 mm^3, tumors were size-matched and mice were randomized to treatment groups (n=8 or 10). The tumor-bearing mice were treated i.v. with Vehicle or test compound at 2 or 4 mg/kg (mpk) on a QW dosing schedule for 3 weeks. Tumor volume was assessed twice weekly using caliper measurement.

| Compound | effect on tumor growth (mean tumor volume versus days of treatment) (2 mg/kg i.v.) | effect on tumor growth (mean tumor volume versus days of treatment) (4 mg/kg i.v.) |
| --- | --- | --- |
| CC[C@H](C)[C@@H]([C@@H](CC(=O)N1CCC[C@H]1[C@H](OC)[C@@H](C)C(=O)NCCc1ccccn1)OC)N(C)C(=O)[C@@H](NC(=O)[C@@H](NC)C(C)C)C(C)C [Example 1, (S)—N-((3R,4S,5S)-3-Methoxy-1-((S)-2-((1R,2R)-1-methoxy-2-methyl-3-oxo-3-((2-(pyridin-2-yl)ethyl)amino)propyl)pyrrolidin-1-yl)-5-methyl-1-oxoheptan-4-yl)-N,3-dimethyl-2-((S)-3-methyl-2-(methylamino)butanamido)butanamide] (H-[NMeV]V[Dil][Dolaproine]-{NH(2-(2-pyridyl)ethyl)}) | tumor stasis | tumor stasis |
| CC[C@H](C)[C@@H]([C@@H](CC(=O)N1CCC[C@H]1[C@H](OC)[C@@H](C)C(=O)NCCc1ccc(N)cc1)OC)N(C)C(=O)[C@@H](NC(=O)[C@H](C(C)C)N(C)C)C(C)C [Example 22, (S)—N-((3R,4S,5S)-1-((S)-2-((1R,2R)-3-((4-aminophenethyl)amino)-1-methoxy-2-methyl-3-oxopropyl)pyrrolidin-1-yl)-3-methoxy-5-methyl-1-oxoheptan-4-yl)-2-((S)-2-(dimethylamino)-3-methylbutanamido)-N,3-dimethylbutanamide] | tumor stasis |  |
